Assay results: patent USRE47302E1 (ONYX THERAPEUTICS INC., priority 2013, dated 2019)
≈ marks a conversion by molar mass, not a printed value.

Assay: Solubility pH 7
Settings: pH 7, aqueous buffer

| SMILES | solubility [µg/mL] |
| --- | --- |
| COc1ccc(C[C@H](NC(=O)[C@@H](C)NC(=O)[C@H]2CC[C@H](O)CC2)C(=O)N[C@@H](CC2CC(F)(F)C2)C(=O)[C@@]2(C)CO2)cc1 [Compound C-1073, (1r,4R)-N-((R)-1-(((S)-1-(((S)-3-(3,3-difluorocyclobutyl)-1-((R)-2-methyloxiran-2-yl)-1-oxopropan-2-yl)amino)-3-(4-methoxyphenyl)-1-oxopropan-2-yl)amino)-1-oxopropan-2-yl)-4-hydroxycyclohexanecarboxamide] | 2180 (≈ 3.67 mM) |
| COc1ccc(C[C@H](NC(=O)[C@@H](C)NC(=O)[C@@H]2CC[C@@H](O)C2)C(=O)N[C@@H](CC2CCCC2)C(=O)[C@@]2(C)CO2)cc1 [Compound C-1077, (1R,3R)-N-((R)-1-(((S)-1-(((S)-3-cyclopentyl-1-((R)-2-methyloxiran-2-yl)-1-oxopropan-2-yl)amino)-3-(4-methoxyphenyl)-1-oxopropan-2-yl)amino)-1-oxopropan-2-yl)-3-hydroxycyclopentanecarboxamide] | 1540 (≈ 2.75 mM) |
| COc1ccc(C[C@H](NC(=O)[C@@H](C)NC(=O)[C@@H]2CC[C@H](O)C2)C(=O)N[C@@H](CC2CCCC2)C(=O)[C@@]2(C)CO2)cc1 [Compound C-1078, (1R,3S)-N-((R)-1-(((S)-1-(((S)-3-cyclopentyl-1-((R)-2-methyloxiran-2-yl)-1-oxopropan-2-yl)amino)-3-(4-methoxyphenyl)-1-oxopropan-2-yl)amino)-1-oxopropan-2-yl)-3-hydroxycyclopentanecarboxamide] | 873 (≈ 1.57 mM) |
| C[C@H](NC(=O)CN1CCOCC1)C(=O)N[C@@H](Cc1ccc2c(c1)CC(=O)N2)C(=O)N[C@@H](CC1CCCC1)C(=O)[C@@]1(C)CO1 [Compound C-1081, (S)-N-((S)-3-cyclopentyl-1-((R)-2-methyloxiran-2-yl)-1-oxopropan-2-yl)-2-((S)-2-(2-morpholinoacetamido)propanamido)-3-(2-oxoindolin-5-yl)propanamide] | 2760 (≈ 4.62 mM) |
| C[C@H](NC(=O)CN1CCOCC1)C(=O)N[C@@H](Cc1ccc(OC(F)(F)F)cc1)C(=O)N[C@@H](CC1CCCC1)C(=O)[C@@]1(C)CO1 [Compound C-1084, (S)-N-((S)-3-cyclopentyl-1-((R)-2-methyloxiran-2-yl)-1-oxopropan-2-yl)-2-((S)-2-(2-morpholinoacetamido)propanamido)-3-(4-(trifluoromethoxy)phenyl)propanamide] | 125 (≈ 0.2 mM) |
| C[C@H](NC(=O)CN1CCOCC1)C(=O)N[C@@H](Cc1ccc2c(c1)CCC(=O)N2)C(=O)N[C@@H](CC1CCCC1)C(=O)[C@@]1(C)CO1 [Compound C-1086, (S)-N-((S)-3-cyclopentyl-1-((R)-2-methyloxiran-2-yl)-1-oxopropan-2-yl)-2-((S)-2-(2-morpholinoacetamido)propanamido)-3-(2-oxo-1,2,3,4-tetrahydroquinolin-6-yl)propanamide] | 3860 (≈ 6.32 mM) |
| C[C@H](NC(=O)CN1CCOCC1)C(=O)N[C@@H](Cc1ccc2c(c1)CCNS2(=O)=O)C(=O)N[C@@H](CC1CCCC1)C(=O)[C@@]1(C)CO1 [Compound C-1091, (S)-N-((S)-3-cyclopentyl-1-((R)-2-methyloxiran-2-yl)-1-oxopropan-2-yl)-3-(1,1-dioxido-3,4-dihydro-2H-benzo[e][1,2]thiazin-6-yl)-2-((S)-2-(2-morpholinoacetamido)propanamido)propanamide] | 230 (≈ 0.356 mM) |
| COc1ccc(C[C@H](NC(=O)[C@H](C)NC(=O)CN2CCOCC2)C(=O)N[C@@H](CC2CC(F)(F)C2)C(=O)[C@@]2(C)CO2)cc1 [Compound C-1093, (S)-N-((S)-3-(3,3-difluorocyclobutyl)-1-((R)-2-methyloxiran-2-yl)-1-oxopropan-2-yl)-3-(4-methoxyphenyl)-2-((S)-2-(2-morpholinoacetamido)propanamido)propanamide] | 6110 (≈ 10.3 mM) |
| COc1ccc(C[C@H](NC(=O)[C@H](C)NC(=O)CN2CCOCC2)C(=O)N[C@@H](C[C@H]2C[C@@H]3C[C@@H]3C2)C(=O)[C@@]2(C)CO2)cc1 [Compound C-1094, (S)-N-((S)-3-((1R,3s,5S)-bicyclo[3.1.0]hexan-3-yl)-1-((R)-2-methyloxiran-2-yl)-1-oxopropan-2-yl)-3-(4-methoxyphenyl)-2-((S)-2-(2-morholinoacetamido)propanamido)propanamide] | 1670 (≈ 2.86 mM) |
| COc1ccc(C[C@H](NC(=O)[C@@H](C)NC(=O)C2CCN(C)CC2)C(=O)N[C@@H](CC2=CCCC2)C(=O)[C@@]2(C)CO2)cc1 [Compound C-1098, N-((R)-1-(((S)-1-(((S)-3-(cyclopent-1-en-1-yl)-1-((R)-2-methyloxiran-2-yl)-1-oxopropan-2-yl)amino)-3-(4-methoxyphenyl)-1-oxopropan-2-yl)amino)-1-oxopropan-2-yl)-1-methylpiperidine-4-carboxamide] | 7830 (≈ 13.8 mM) |
| COc1ccc(C[C@H](NC(=O)[C@@H](C)NC(=O)[C@@H]2CCCN(C)C2)C(=O)N[C@@H](CC2=CCCC2)C(=O)[C@@]2(C)CO2)cc1 [Compound C-1099, (R)-N-((R)-1-(((S)-1-(((S)-3-(cyclopent-1-en-1-yl)-1-((R)-2-methyloxiran-2-yl)-1-oxopropan-2-yl)amino)-3-(4-methoxyphenyl)-1-oxopropan-2-yl)amino)-1-oxopropan-2-yl)-1-methylpiperidine-3-carboxamide] | 7310 (≈ 12.9 mM) |
| COc1ccc(C[C@H](NC(=O)[C@H](C)NC(=O)CN2CCOCC2)C(=O)N[C@@H](CC2=CCCCC2)C(=O)[C@@]2(C)CO2)cc1O [Compound C-1100] | 4570 (≈ 7.61 mM) |
| C[C@H](NC(=O)CN1CCOCC1)C(=O)NC(Cc1ccc2c(c1)COC(=O)N2)C(=O)N[C@@H](CC1CCCC1)C(=O)[C@@]1(C)CO1 (stereo partly drawn) [Compound C-1101, N-((S)-3-cyclopentyl-1-((R)-2-methyloxiran-2-yl)-1-oxopropan-2-yl)-2-((S)-2-(2-morpholinoacetamido)propanamido)-3-(2-oxo-2,4-dihydro-1H-benzo[d][1,3]oxazin-6-yl)propanamide] | 4090 (≈ 6.67 mM) |
| C[C@H](NC(=O)CN1CCOCC1)C(=O)N[C@@H](Cc1ccc2c(c1)CCS(=O)(=O)N2)C(=O)N[C@@H](CC1CCCC1)C(=O)[C@@]1(C)CO1 [Compound C-1102, (S)-N-((S)-3-cyclopentyl-1-((R)-2-methyloxiran-2-yl)-1-oxopropan-2-yl)-3-(2,2-dioxido-3,4-dihydro-1H-benzo[c][1,2]thiazin-6-yl)-2-((S)-2-(2-morpholinoacetamido)propanamido)propanamide] | 3410 (≈ 5.26 mM) |
| COc1ccc(C[C@H](NC(=O)[C@@H](NC(=O)CN2CCOCC2)C2CC2)C(=O)N[C@@H](CC2CCCC2)C(=O)[C@@]2(C)CO2)cc1 [Compound C-1107, (S)-N-((S)-3-cyclopentyl-1-((R)-2-methyloxiran-2-yl)-1-oxopropan-2-yl)-2-((S)-2-cyclopropyl-2-(2-morpholinoacetamido)acetamido)-3-(4-methoxyphenyl)propanamide] | 200 (≈ 0.334 mM) |
| C[C@H](NC(=O)CN1CCOCC1)C(=O)N[C@@H](Cc1ccc2c(c1)CNC(=O)O2)C(=O)N[C@@H](CC1CCCC1)C(=O)[C@@]1(C)CO1 [Compound C-1108, (S)-N-((S)-3-cyclopentyl-1-((R)-2-methyloxiran-2-yl)-1-oxopropan-2-yl)-2-((S)-2-(2-morpholinoacetamido)propanamido)-3-(2-oxo-3,4-dihydro-2H-benzo[e][1,3]oxazin-6-yl)propanamide] | 4730 (≈ 7.71 mM) |
| COc1ccc(C[C@H](NC(=O)[C@@H](C)NC(=O)[C@]2(C)CC[C@@H](O)CC2)C(=O)N[C@@H](CC2=CCCC2)C(=O)[C@@]2(C)CO2)cc1 [Compound C-1111, (1r,4R)-N-((R)-1-(((S)-1-(((S)-3-(Cyclopent-1-en-1-yl)-1-((R)-2-methyloxiran-2-yl)-1-oxopropan-2-yl)amino)-3-(4-methoxyphenyl)-1-oxopropan-2-yl)amino)-1-oxopropan-2-yl)-4-hydroxy-1-methylcyclohexanecarboxamide] | 1070 (≈ 1.84 mM) |
| COc1ccc(C[C@H](NC(=O)[C@@H](C)NC(=O)[C@]2(C)CC[C@H](O)CC2)C(=O)N[C@@H](CC2=CCCC2)C(=O)[C@@]2(C)CO2)cc1 [Compound C-1112, (1s,4S)-N-((R)-1-(((S)-1-(((S)-3-(cyclopent-1-en-1-yl)-1-((R)-2-methyloxiran-2-yl)-1-oxopropan-2-yl)amino)-3-(4-methoxyphenyl)-1-oxopropan-2-yl)amino)-1-oxopropan-2-yl)-4-hydroxy-1-methylcyclohexanecarboxamide] | 1110 (≈ 1.91 mM) |
| C[C@H](NC(=O)CN1CCOCC1)C(=O)N[C@@H](Cc1ccc(O)cc1)C(=O)N[C@@H](CC1CCCC1)C(=O)[C@@]1(C)CO1 [Compound C-1113, (S)-N-((S)-3-cyclopentyl-1-((R)-2-methyloxiran-2-yl)-1-oxopropan-2-yl)-3-(4-hydroxyphenyl)-2-((S)-2-(2-morpholinoacetamido)propanamido)propanamide] | 3790 (≈ 6.78 mM) |
| C[C@H](NC(=O)CN1CCOCC1)C(=O)N[C@@H](Cc1cccc(O)c1)C(=O)N[C@@H](CC1CCCC1)C(=O)[C@@]1(C)CO1 [Compound C-1114, (S)-N-((S)-3-cyclopentyl-1-((R)-2-methyloxiran-2-yl)-1-oxopropan-2-yl)-3-(3-hydroxyphenyl)-2-((S)-2-(2-morpholinoacetamido)propanamido)propanamide] | 793 (≈ 1.42 mM) |
| COc1ccc(C[C@H](NC(=O)[C@H](C)NC(=O)CN2CCS(=O)(=O)CC2)C(=O)N[C@@H](CC2=CCCC2)C(=O)[C@@]2(C)CO2)cc1 [Compound C-1115, (S)-N-((S)-3-(cyclopent-1-en-1-yl)-1-((R)-2-methyloxiran-2-yl)-1-oxopropan-2-yl)-2-((S)-2-(2-(1,1-dioxidothiomorpholino)acetamido)propanamido)-3-(4-methoxyphenyl)propanamide] | 496 (≈ 0.801 mM) |
| COc1ccc(C[C@H](NC(=O)[C@H](C)NC(=O)CN2CCNC(=O)C2)C(=O)N[C@@H](CC2=CCCC2)C(=O)[C@@]2(C)CO2)cc1 [Compound C-1120, (S)-N-((S)-3-(cyclopent-1-en-1-yl)-1-((R)-2-methyloxiran-2-yl)-1-oxopropan-2-yl)-3-(4-methoxyphenyl)-2-((S)-2-(2-(3-oxopiperazin-1-yl)acetamido)propanamido)propanamide] | 8000 (≈ 13.7 mM) |
